The nature of data set [1]: microPET imaging of NHP brain after intravenous injection. It counts as in vivo, nonhuman primates (NHP). How it is done: Similarly, in nonhuman primates (NHP), about 3 mCi of Agent 1 or Agent 2 was injected intravenously and the brain of NHP was imaged in a microPET. […] The NHP brain was not visible when imaged with Agent 1.
Another data set concerns tumor. Nature of the data set: Tumor uptake measured in mouse tumor models after imaging. As to conditions: about 500 μCi intravenously. Type of data set: in vivo. Here is the method: Imaging studies using several mouse tumor models, including c-neu ONCO mice, nu/nu mice with OVCAR tumor, and nu/nu mice with HT1080 tumor, were conducted using contrast agents described herein. After administering anesthesia to the mouse, about 500 μCi of Agent 2 (from Table 1) were injected intravenously and the tumor was imaged in a microPET scanner. After imaging acquisition, images were reconstructed into tomographic views. […] In addition, tumor uptake of Agent 2 was measured in the mouse models after imaging. The uptake was detectable in a range from 1-4% injected dose per gram tissue.

The nature of data set [2]: microPET imaging of rat brain after intravenous injection. Type of data set: in vivo. To be noted: about 1 mCi intravenously. Here is the method:
After anesthesia, about 1 mCi of Agent 2 or Agent 3 was injected into a rat intravenously and the rat brain was imaged in a microPET scanner. Following the image acquisition, the images were reconstructed into tomographic views.

A short description of data set [3]: microPET brain imaging in normal NHP (Example 13). Type of data set: in vivo, nonhuman primates (NHP). To be noted: 30 minutes post injection of 5.1 mCi. How it is done: (§1) Imaging was performed with a microPET camera (Focus220, MICROPET) in anesthetized rats, rabbits and nonhuman primates (NHP) following the intravenous administration of 1, 2 and 3 mCi of ^18F labeled 2-tert-butyl-4-chloro-5-[4-(2-fluoro-ethoxymethyl)-benzyloy]-2H-pyridazin-3-one, also referred to herein as Agent 2. After count acquisition, images were constructed and manually re-orientated as a series of tomographic views. […] These images were acquired 30 minutes post injection (mpi) of 5.1 mCi of 2-tert-butyl-4-chloro-5-[4-(2-[^18F]fluoro-ethoxymethyl)-benzyloy]-2H-pyridazin-3-one and were decay corrected.

The nature of data set [4]: Intravenous injection during microPET imaging in normal animals: heart rate, ECG, adverse effects. It counts as in vivo, rats, rabbits and nonhuman primates. To be noted: anesthetized animals. Here is the method: as §1

3 compounds from patent US10245332B2, “Contrast agents for applications including perfusion imaging” (Lantheus Medical Imaging, Inc., priority 2008, dated 2019) can be followed below.

With `CC(C)(C)n1ncc(OCc2ccc(CCCC[18F])cc2)c(Cl)c1=O` [Agent 1, 2-tert-butyl-4-chloro-5-[4-(4-[^18F]fluoro-butyl)-benzyloxy]-2H-pyridazin-3-one], the “visibility of NHP brain in microPET images” value in data set [1] (NHP, about 3 mCi intravenously) was “not visible”. The “penetration into the brain, relative to Agent 2” value in data set [1] (SAR study of Example 14) is “decreased penetration into the brain”.
For `CC(C)(C)n1ncc(OCc2ccc(COCC[18F])cc2)c(Cl)c1=O` [Agent 2, 2-tert-Butyl-4-chloro-5-[4-(2-(^18F)fluoroethoxymethyl)-benzyloxy]-2H-pyridazin-3-one], in the data set with tumor, the tumor uptake is on record as 1-4 % injected dose per gram tissue. Also, in data set [2], the “passing the blood brain barrier and accumulating in the brain” value is “capable of passing the blood brain barrier and accumulating in the brain”. In addition, the “transport into the brain (uptake and resolution of the images)” value in data set [3] was “efficiently transported into the brain”. In data set [4], the “changes in heart rate and ECG waveforms” value is “did not induce changes in heart rate and ECG waveforms”; the “survival and adverse effects during image acquisition period” value is listed as “all animals survived the image acquisition period with no adverse effects”. Moreover, in data set [1] (NHP, about 3 mCi intravenously), the “passing through blood brain barrier and accumulating in the brain” value is “capable of passing through blood brain barrier and accumulating in the brain”; the “visibility of NHP brain in microPET images” value was “visible”.
Regarding `CC(C)(C)n1ncc(OCc2ccc(OCCC[18F])cc2)c(Cl)c1=O` [Agent 3, 2-tert-Butyl-4-chloro-5-[4-(3-(^18F)fluoropropoxy)-benzyloxy]-2H-pyridazin-3-one], the “passing the blood brain barrier and accumulating in the brain” value in data set [2] is “unlike Agent 3, Agent 2 is capable of passing the blood brain barrier”.
